Measurements from PubChem BioAssay (NCI).
Several values for one entry are separate records, joined by “and”; a condition that tells them apart may be missing. Identical values can stand only once.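 1) Cells in 96-well plates. 2) Compound, 48 h, 5 concentrations. 3) Linear interpolation between surrounding doses. 4) Unreached endpoint = highest concentration. The concentration for 50% growth inhibition is given as GI50. At the TGI there is no net growth.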

Key:
Assay in all cases: inhibition of tumour cell growth, NCI panel, 48 h
KM12 colon = tested on: KM12 colon
T-47D breast = tested on: T-47D breast
LOX IMVI melanoma = tested on: LOX IMVI melanoma
COLO 205 colon = tested on: COLO 205 colon
CAKI-1 renal = tested on: CAKI-1 renal
OVCAR-3 ovarian = tested on: OVCAR-3 ovarian
HL-60(TB) leukemia = tested on: HL-60(TB) leukemia
K-562 leukemia = tested on: K-562 leukemia
SK-MEL-28 melanoma = tested on: SK-MEL-28 melanoma
NCI-H226 lung = tested on: NCI-H226 lung

Row | Structure (SMILES) | GI50 (KM12 colon) | TGI (KM12 colon) | GI50 (T-47D breast) | TGI (T-47D breast) | GI50 (LOX IMVI melanoma) | TGI (LOX IMVI melanoma) | GI50 (COLO 205 colon) | TGI (COLO 205 colon) | GI50 (CAKI-1 renal) | TGI (CAKI-1 renal) | GI50 (OVCAR-3 ovarian) | TGI (OVCAR-3 ovarian) | GI50 (HL-60(TB) leukemia) | TGI (HL-60(TB) leukemia) | GI50 (K-562 leukemia) | TGI (K-562 leukemia) | GI50 (SK-MEL-28 melanoma) | TGI (SK-MEL-28 melanoma) | GI50 (NCI-H226 lung) | TGI (NCI-H226 lung)
1 | C/C(=N/O)c1cccc(Nc2cc(-n3nnc4ccccc43)nc3ccccc23)c1 | 9.48 µM | 28.4 µM | 34.6 µM | > 85.3 µM | 24.2 µM | 93 µM | 32.4 µM | > 73 µM | 16.8 µM | 43.5 µM | 13 µM | 31.7 µM | 13.1 µM | 49.9 µM | 5.91 µM | 82.1 µM | 21.1 µM | > 68 µM | 11.8 µM | 47.3 µM
2 | CC(C)=CCN1c2ccccc2NC(=O)CC1C (configuration not stated) |  | > 100 µM |  | > 100 µM |  | > 100 µM |  | > 100 µM |  | > 100 µM |  | > 100 µM |  | > 100 µM |  | > 100 µM |  | > 100 µM |  | > 100 µM
3 | C[C@@H](NC(C#N)c1ccco1)c1ccccc1 (some centres not stated) |  | > 100 µM |  | > 100 µM |  |  |  |  |  |  |  | > 100 µM |  | > 100 µM |  | > 100 µM |  | > 100 µM |  | > 100 µM
4 | CCSC1=NC2C(N(CC)C(=O)N2CC)N1/N=C/C=C/c1ccccc1[N+](=O)[O-] (configuration not stated) | 0.0887 µM | > 37.7 µM | 2.59 µM | > 82.1 µM | 0.126 µM | > 100 µM |  |  | 0.0647 µM | > 100 µM | 0.169 µM |  | 0.205 µM | 0.502 µM | 0.0583 µM | > 100 µM | 5.83 µM | > 100 µM | 0.381 µM | > 100 µM
5 | Cc1ccc2cnc(N)c(C#Cc3cc(C(=O)Nc4ccc(CN5CCN(C)CC5)c(C(F)(F)F)c4)cnc3C)c2c1 | 0.005 µM | 1.02 µM | 9.23 µM | 36.7 µM | 0.183 µM | 0.808 µM | 0.296 µM | 1.16 µM | 0.476 µM | 1.1 µM | 0.67 µM | 2.66 µM | 1.73 µM | 6.58 µM | 0.005 µM | 1.26 µM | 0.609 µM | 1.36 µM | 0.538 µM | 1.74 µM
6 | C1CSCCCSCCCSCCCSCCCSCCCSCCCSCCCSC1 |  | > 100 µM |  | > 100 µM |  | > 100 µM |  | > 100 µM |  | > 100 µM |  | > 100 µM |  | > 100 µM |  | > 100 µM |  | > 100 µM |  | > 100 µM
7 | N#C[Se]Cc1cc(-c2ccccc2)n(-c2ccc(S(N)(=O)=O)cc2)n1 | 0.881 µM | 3.22 µM | 2.19 µM | 7.28 µM | 0.171 µM | 0.324 µM | 1.93 µM | 3.61 µM | 2.07 µM | 5.24 µM | 1.18 µM | 2.98 µM | 0.939 µM | 3.87 µM | 1.15 µM | 9.88 µM | 0.359 µM | 1.34 µM | 0.249 µM | 0.648 µM
8 | O=S(=O)(/N=c1\scc(-c2ccccc2)n1-c1ccccc1)c1ccc(N2N=C3c4ccccc4CC3C2c2ccc(Cl)cc2)cc1 (configuration not stated) | 19.9 µM | 89 µM | > 100 µM | > 100 µM | 21.5 µM | 43.5 µM | 23.6 µM | 54.9 µM | 46.4 µM | > 100 µM | 44.3 µM | > 100 µM | 29.6 µM | 69 µM | 20 µM | 55.5 µM | 67.7 µM | > 100 µM | 94.6 µM | > 100 µM
9 | CO/N=C(\COc1ccc2c(c1)[nH]c1ccccc12)c1ccc(OC)cc1 | > 100 µM | > 100 µM | > 100 µM | > 100 µM | 19.6 µM | > 100 µM | 92.3 µM | > 100 µM |  |  | 32.9 µM | > 100 µM | 62.2 µM | > 100 µM | 31 µM | > 100 µM | 11.8 µM | 69.3 µM | > 100 µM | > 100 µM
10 | COc1ccc2c(c1)C(=O)/C(=C/c1cccc(OCC(=O)c3ccccc3)c1)CC2 | 6.92 µM | > 100 µM | 7.05 µM | > 100 µM | 9.61 µM | > 100 µM | 88.5 µM | > 100 µM | 13 µM | > 100 µM | 18.3 µM | > 100 µM | 2.18 µM | 5.16 µM | 1.98 µM | 5.82 µM | 32.8 µM | > 100 µM | 28.6 µM | > 100 µM
11 | CN(C)CCNC(=O)Cn1ccc(=O)c2cc([N+](=O)[O-])ccc21 |  | > 100 µM |  | > 100 µM |  | > 100 µM |  | > 100 µM |  | > 100 µM |  | > 100 µM |  | > 100 µM |  | > 100 µM |  | > 100 µM |  | > 100 µM
12 | FC(F)(F)c1cccc(-c2nc3nc(Cl)c(Cl)nc3[nH]2)c1 |  | 11 µM |  | 12.9 µM |  | 13.1 µM |  | 2.98 µM |  | 11 µM |  | 14.9 µM |  | 4.7 µM |  | 17 µM |  | 27.3 µM |  | 13.5 µM
13 | c1ccc(-c2nc(-c3ccccn3)nc(-c3ccccn3)n2)nc1 | 32.4 µM | > 100 µM | 7.85 µM | > 100 µM | 33.5 µM | > 100 µM | 45.7 µM | > 100 µM | 3.88 µM | 34.3 µM | 25.4 µM | > 100 µM | 38.2 µM | > 100 µM | 19.4 µM | > 100 µM | 71 µM | > 100 µM | 44.9 µM | > 100 µM
14 | Cn1ncc(-c2ccc3c(=O)[nH]nc(CN)c3c2)c1-c1c(F)c(Cl)cc(OC2CC2)c1C#N | 13.9 µM and 12.4 µM | 28.3 µM and 25.6 µM | 12.3 µM and 6.06 µM | 36.5 µM and 28.4 µM | 12.5 µM and 12.9 µM | 25.6 µM and 26.2 µM | 11.8 µM and 10.9 µM | 26.9 µM and 25.1 µM | 11.6 µM and 11.2 µM | 24.1 µM and 23.6 µM | 15 µM and 12.6 µM | 30.6 µM and 26.5 µM | 20.6 µM and 23.1 µM | > 100 µM | 14.5 µM and 14.8 µM | 92.1 µM and > 100 µM | 14.3 µM and 13.7 µM | 27.8 µM and 27.2 µM | 15.7 µM and 13.2 µM | 32 µM and 27.4 µM
